Experimental data reported in paper PMC12744750 (Plant Communications, 2025).
Ends that are not written are not given here.

Key:
[1] = tested on: ETR1:HA; assay: Co-immunoprecipitation of PLS:GFP and ETR1:HA in N. benthamiana leaves; type: binding, Arabidopsis; conditions: Co-IP, western blotting, 3 days after infiltration
Description: To investigate the interaction between the PLS peptide and the ethylene receptor ETR1, two DNA constructs were created by Gateway cloning. The […] PLS gene (without the stop codon) was inserted into the pEarlyGate103 (pEG103) destination vector, which contained the pro35S promoter and a C-terminal GFP tag, to produce a vector containing pro35S::PLS:GFP DNA. The ETR1 cDNA was inserted into the pEarlyGate301 (pEG301) vector to create a pro35S::ETR1:HA construct to express an ETR1 protein with a C-terminal HA tag. pro35S::GFP was used as a control. The primers used to clone ETR1 and PLS are found in supplemental Table 9.
Constructs were transiently expressed in N. benthamiana (tobacco) leaves as described previously ([Voinnet et al., 2003]). Experiments were replicated up to five times. Competent Agrobacterium tumefaciens GV3101 cells were transformed with the desired plasmid containing the gene of interest and injected with a syringe. The plants were approximately 7–10 weeks old; the chosen leaves were healthy and 3–6 cm in length, and 3 to 4 leaves were infiltrated with each construct. […]
SDS–PAGE was used to separate protein fragments. The complexed proteins from the pulldown assay were analyzed on 10%–12% acrylamide gels. […] The horseradish peroxidase conjugated to the secondary antibody was detected using X-ray film. […]

[2] = tested on: root epidermal cells, endomembrane markers; assay: Subcellular localization by confocal microscopy; type: cell-based, Arabidopsis
Description: (§1) proPLS::PLS:GFP comprises a 1.5-kb PLS promoter sequence ([Casson et al., 2002]) fused to the PLS open reading frame in pMDC107 (obtained from Prof. P.J. Hussey, Durham University) as a C-terminal GFP translational fusion. The PLS ORF with its 1.5-kb promoter was amplified from the TOPO 2.1 vector, which contained the PLS gene sequence with promoter ([Casson et al., 2002]); the primers used for cloning are listed in supplemental Table 9. pls mutant plants were transformed using the method of [Clough and Bent (1998)]. proPLS::GFP plants were generated using the 1.5-kb PLS promoter ([Casson et al., 2002]) fused to GFP in a wild-type background. p35S::GFP seedlings were obtained from Dr. Piers Hemsley, Durham University. […] Seedlings were scanned to create a digital image, and root lengths of the seedlings were measured using ImageJ. […]
CSLM images for propidium iodide and GFP were obtained using a Leica SP5 TCS confocal microscope as described previously ([Rowe et al., 2016]). proPLS::PLS:GFP, proPLS::GFP, and pro35S::GFP seedlings were grown for 7 days on Phytagel ½ MS10 medium before ∼25 mm of the root tip was removed and mounted in dH2O prior to imaging. […] For standard photomultiplier tubes, a laser power of 21% and a smart gain of 800–1000 mV were used, depending on the intensity of the fluorescence. […]

[3] = tested on: pls mutant; assay: Complementation of pls mutant by proPLS::PLS:GFP transgene; type: in vivo, Arabidopsis thaliana; conditions: single-copy proPLS::PLS:GFP in pls background
Description: as §1, with “University. Seedlings of Arabidopsis thaliana ecotype C24 or Col-0, pls mutants, and transgenic PLS overexpressers, all from lab stocks, were grown on solid sterile half-strength (2.2 g/l) Murashige and Skoog medium (Sigma-Aldrich) containing 10 g/l sucrose (half-strength [½] MS10 medium) solidified with 2.5 g/l Phytagel (Sigma-Aldrich) in 90-mm Petri dishes (Sarstedt, Leicester, UK) at 21°C under a 16-h photoperiod as described previously ([Casson et al., 2002]; [Chilley et al., 2006]).” for “University.”

[4] = tested on: pls mutant primary root; assay: Root length of pls mutant under exogenous copper; type: in vivo, Arabidopsis thaliana; conditions: 0-50 μM CuSO4, 12 days, n = 18
Description: as §1
Root length (n = 18 from samples grown on 3 independent plates) was measured after 12 days using ImageJ. […]

Substance | binding of ETR1:HA [1] | co-localization with RFP:HDEL (ER lumen) ([2]; proPLS::PLS:GFP plants) | co-localization with ER Tracker Red ([2]; proPLS::PLS:GFP stably transformed Arabidopsis) | transformants fully complementing pls mutant [3] | copper hypersensitivity of pls mutant [4]
PLS:GFP: fusion protein of PLS with C-terminal GFP (MKPRLCFNFRRRSISPCYISISYLLVAKLFKLFKIH-{GFP}; cysteine pairing not given here) | ETR1:HA bound to PLS:GFP | co-localized with the ER lumen–targeted red fluorescent protein RFP:HDEL | co-localized with the ER marker dye ER-Tracker Red | four | –
copper | – | – | – | – | not copper hypersensitive
